Test results published in ChEMBL document CHEMBL1268867, “ATPases as drug targets: insights from heat shock proteins 70 and 90” (J Med Chem, 2010).

Key:
[1] = target: Heat shock cognate 71 kDa protein (Bos taurus, UniProt P19120); assay: Binding affinity to bovine Hsc70 by filter binding assay
[2] = target: Heat shock cognate 71 kDa protein (Homo sapiens, UniProt P11142); assay: Binding affinity to human Hsc70 by isothermal calorimetry assay
[3] = Binding affinity to Hsp70 nucleotide binding domain

Sequence of Heat shock cognate 71 kDa protein (Homo sapiens, UniProt P11142) (P11142 whole entry, the tested form may be a part): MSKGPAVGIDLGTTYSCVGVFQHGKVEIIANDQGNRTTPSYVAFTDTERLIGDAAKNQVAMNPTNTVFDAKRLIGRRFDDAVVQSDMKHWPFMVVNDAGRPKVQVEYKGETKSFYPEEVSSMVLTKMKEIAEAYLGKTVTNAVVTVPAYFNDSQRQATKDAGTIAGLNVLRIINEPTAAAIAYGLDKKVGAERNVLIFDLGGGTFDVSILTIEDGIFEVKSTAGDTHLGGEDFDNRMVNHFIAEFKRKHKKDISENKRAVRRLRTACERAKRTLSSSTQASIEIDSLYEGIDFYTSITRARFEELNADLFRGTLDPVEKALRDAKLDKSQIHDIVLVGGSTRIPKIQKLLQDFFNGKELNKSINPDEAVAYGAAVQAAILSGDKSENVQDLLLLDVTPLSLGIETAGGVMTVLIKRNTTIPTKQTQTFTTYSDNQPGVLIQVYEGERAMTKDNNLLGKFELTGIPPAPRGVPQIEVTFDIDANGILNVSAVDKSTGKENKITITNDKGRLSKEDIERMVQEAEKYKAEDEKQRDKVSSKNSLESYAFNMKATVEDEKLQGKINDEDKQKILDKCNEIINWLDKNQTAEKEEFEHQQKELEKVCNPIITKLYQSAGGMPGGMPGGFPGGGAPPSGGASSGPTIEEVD
Sequence of Heat shock cognate 71 kDa protein (Bos taurus, UniProt P19120) (P19120 whole entry): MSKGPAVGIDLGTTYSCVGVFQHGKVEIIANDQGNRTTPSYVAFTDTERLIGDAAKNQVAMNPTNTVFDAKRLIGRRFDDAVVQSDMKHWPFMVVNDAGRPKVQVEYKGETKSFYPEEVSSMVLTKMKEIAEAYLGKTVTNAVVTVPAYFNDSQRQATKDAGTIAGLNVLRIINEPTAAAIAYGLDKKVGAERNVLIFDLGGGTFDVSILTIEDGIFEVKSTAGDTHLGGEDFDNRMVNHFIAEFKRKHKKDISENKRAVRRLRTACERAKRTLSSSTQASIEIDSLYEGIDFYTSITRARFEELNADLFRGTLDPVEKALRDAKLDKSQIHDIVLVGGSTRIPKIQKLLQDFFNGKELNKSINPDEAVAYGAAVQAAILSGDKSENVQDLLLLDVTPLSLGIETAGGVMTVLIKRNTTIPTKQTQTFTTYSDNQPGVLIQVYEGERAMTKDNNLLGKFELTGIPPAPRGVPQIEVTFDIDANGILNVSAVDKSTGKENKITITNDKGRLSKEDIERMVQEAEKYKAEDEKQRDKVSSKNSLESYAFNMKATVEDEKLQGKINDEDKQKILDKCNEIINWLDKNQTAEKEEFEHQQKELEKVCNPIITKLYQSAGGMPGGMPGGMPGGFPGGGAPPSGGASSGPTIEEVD

| Kd [1] | Kd [2] | Kd [3] | Structure (SMILES) |
| --- | --- | --- | --- |
| 110 nM | 260 nM |  | Nc1ncnc2c1ncn2[C@@H]1O[C@H](COP(=O)(O)OP(=O)(O)O)[C@@H](O)[C@H]1O [ADENOSINE DIPHOSPHATE] |
|  |  | 300 nM | N#Cc1ccc(COC[C@H]2O[C@@H](n3c(NCc4ccc(Cl)c(Cl)c4)nc4c(N)ncnc43)[C@H](O)[C@@H]2O)cc1 |
